Values of other authors, collected in US11229595B2, “Skin barrier preparation and method therefor” (Johnson & Johnson Consumer Inc., priority 2019, dated 2022).

Test system: skin
Conditions: eight volunteers, four compounds compared, patches during 24 hours

Structure (SMILES)	increase of TEWL
CN(C)CCCN1c2ccccc2CCc2ccccc21 [imipramine]	increased the least TEWL
CCCCCCCCC(=O)O [nonanoic acid]	increased the least TEWL
